Source: patent publication US20130210907A1, “METHOD FOR PREVENTING OR TREATING ENTEROCHROMAFFIN CELL HYPERPLASIA-RELATED DISEASES BY QUERCETIN ADMINISTRATION” (HONG KONG BAPTIST UNIVERSITY, priority 2012, published 2013)

Columns and labels:
[1] = tested on: PI-IBS rats; experiment: Colonic EC cell counting (silver staining); type: in vivo, rat; conditions: for EC cell density: PI-IBS rats, colon
Method: Six groups of 5 rats are tested. The groups setting and treatments are as described in Example 1. Different from Example 1, AWR test are not applied to the rats in this experiment in order to obtain the basal data without CRD stimulus. After the last drug administration, a 6 cm proximal colon (1-2 cm from caecum) is collected and divided into 3 parts, the proximal is fixed in 4% paraformaldehyde and embedded in paraffin for EC cell staining; the middle part is collected for 5-HT content measurement and electron microscopic evaluation, and the distal part is for western blotting analysis.
Tissue sections (5-μm thick) are deparaffinized and rehydrated for silver staining. Briefly, sections are incubated with 5% ammoniacal silver solution for 4 h at room temperature, then 2 h in 56° C. and subsequently 12 h at room temperature in a dark humidified chamber. After rinsing with water, 5% sodium hyposulfite is added and the tissue sections are incubated for 5 min at room temperature. The brown to black silver precipitate in the cytoplasm of EC cells represents as a positive reaction. A researcher blinded to treatment counted 5 random fields at 200× magnifications for each section, and the number of EC cells per mm^2 of mucosa is quantified using Image J NIH software.

[2] = tested on: QGP-1 cells; experiment: Cytotoxicity by lactate dehydrogenase (LDH) release; type: cell-based, human; conditions: QGP-1, 25-100 μM, 24 h
Method: The cytotoxicity of Quercetin is determined by lactate dehydrogenase (LDH) assay in QGP-1 cells. Cells are seeded at a density of 5,000 cells/well into 96-well plates and incubated with Quercetin (0-100 μM, 0.01% DMSO) for 24 h. Release of cytoplasmic enzyme lactate dehydrogenase is measured after incubation by using colorimetric assay kit (Roche Molecular Biochemicals, Germany) according to the manufacturer's instructions.

[3] = tested on: QGP-1 cells; experiment: Sub-G0/G1 fraction by flow cytometry; type: cell-based, human; conditions: QGP-1, 25~100 μM, 24 h
Method: QGP-1 cells are seeded at a density of 10×10^4 cells/ml and pre-incubated overnight. After incubation with or without Quercetin (0-100 μM) for 24 h, cells are harvested by trypsinization and fixed in 70% ethanol at 4° C. overnight. The cells are centrifuged to remove ethanol and washed twice using ice-cold PBS. The cell pallets are resuspended in 500 n1 propidium iodide solution (0.1% Triton X-100, 50 μg/ml propidium iodide in PBS) containing 50 μg/ml RNase and incubated at 37° C. for 30 min and protected from the light. The DNA content of 10,000 cells is detected by BD FASCanto Flow Cytometry and analyzed using CellFit software (Becton Dickinson, Heidelberg, Germany). The data are representative of those obtained in at least three experiments.
For flow cytometric analysis, cells with sub-G0/G1 DNA content are stained with propidium iodide, and the methods are as described in section 2 of Example 8. […] Based on the results form LDH assay and apoptosis detection, Quercetin indeed has cytotoxicity and can further induce cell apoptosis.

[4] = tested on: p-Cdc-2; experiment: Western blot of p-Cdc-2 in QGP-1 cells; type: cell-based, human; conditions: QGP-1, 50-100 μM, 24 h
Method: After drug treatment, the cells are lysed and centrifuged to collect the protein extract After determination of protein content, the samples protein are denatured at 100° C. for 5 min Proteins are separated by 10-12% SDS-PAGE and transferred to PVDF membranes (Bio-Rad, CA). After blocking with 5% nonfat milk for 1 h at room temperature, the membranes are incubated overnight at 4° C. with primary antibodies (mouse anti-cyclin BE 1:500, Abcam; goat anti-p-Cdc2:1:500, Santa Cruz; mouse anti-p21: 1:500, BD Bioscience). After washing three times in TBST, the membranes where incubated with the appropriate secondary antibodies (1:2000, Invitrogen) for 1 h at room temperature. The immunoreaction is detected using ECL Western blotting kit (ECL, Amersham, UK). Bands are visualized on Biomax X-ray film, and optical density of each band is semi-quantified by software (Image J.NIH). In order to adjust for any variations in loading, all detected protein bands are normalized to β-actin levels.

O=c1c(O)c(-c2ccc(O)c(O)c2)oc2cc(O)cc(O)c12 [Quercetin, 2-(3,4-dihydroxyphenyl)-3,5,7-trihydroxy-4H-chromen-4-one]
EC cell density ([1]; 5 mg/kg i.g.): 89 ± 5 Number/mm^2 | EC cell density ([1]; 10 mg/kg i.g.): 72 ± 7 Number/mm^2 | EC cell density ([1]; 20 mg/kg i.g.): 105 ± 8 Number/mm^2 | Decrease of EC cells number compared with the PI-IBS group ([1]; low dose (5 mg/kg)): 18% | Decrease of EC cells number compared with the PI-IBS group ([1]; median dose (10 mg/kg)): 42% | LDH release [2]: significant and dose-dependent increase | Sub-G0/G1 fraction [3]: concentration-dependently increases | Protein level of p-Cdc-2 [4]: significantly decrease
